From ChEMBL document CHEMBL5316324, “Discovery, Characterization, and Engineering of LvIC, an α4/4-Conotoxin That Selectively Blocks Rat α6/α3β4 Nicotinic Acetylcholine Receptors” (J Med Chem, 2023)
Peptide text beside a SMILES is read from it.

How the values were obtained:
[1] = biological target: Nicotinic acetylcholine receptor alpha6/alpha3/beta4 (Rattus norvegicus) (UniProt P04757+P12392+P43143); test: Potency index, ratio of [T5A,P60]BuIA to test compound for rat alpha6/alpha3beta4 nAChR expressed in Xenopus Oocytes assessed as fold increase in presence of acetylcholine by Voltage-clamp recording; format: cell-based; conditions: Oocyte
[2] = biological target: Neuronal acetylcholine receptor; alpha3/beta4 (Rattus norvegicus) (UniProt P04757+P12392); test: Potency index, ratio of [T5A,P60]BuIA to test compound for rat alpha3beta4 nAChR expressed in Xenopus oocytes assessed as fold decrease in presence of acetylcholine by Voltage-clamp recording; format: cell-based; conditions: Oocyte

CC(C)[C@H](NC(=O)[C@@H]1CCCN1C(=O)[C@H](CC(N)=O)NC(=O)[C@H](C)NC(=O)[C@H](CS)NC(=O)[C@H](CS)NC(=O)[C@@H](N)CCCNC(=N)N)C(=O)N[C@@H](CS)C(=O)N[C@@H](CC(N)=O)C(=O)NCC(=O)N[C@@H](CCCCN)C(=O)N[C@@H](Cc1cnc[nH]1)C(=O)N[C@@H](CS)C(N)=O (H-RCCANPVCNGKHC-NH2)
fold change (FC) [1]: 3 | fold change (FC) [2]: 10
